Experimental data published in US5632983A, “Method for treating secondary immunodeficiency” (University of South Florida, priority 1994, dated 1997).
No end group written: not given here.

Assays:
[1] = Spleen weight in hydrocortisone-treated aged mice; type: in vivo; details: NCM 50 U of IL-2 per mouse/day; Thymosin α1 5 or 20 microgram/mouse/day (pooled); i.p. 5 days, day 8
Procedure: (§1) Female BALB/c (Life Science, St. Petersburg, Fla.) aged retired breeder mice (8-9 months) whose thymuses had begun to involute were employed in in vivo tests. Mice were weight matched and randomly pooled in groups of five. Animals were fed standard laboratory diets with drinking water ad lib. All mice, with exception of a control group, were treated intraperitoneally (i.p.) with hydrocortisone (5 mg/mouse in 0.1 ml 0.9% sodium chloride) for two consecutive days to induce a chemical thymectomy and reduction of spleen weight.
(§2) Each treatment group had five (5) animals and each experiment was repeated 2-5 times. Treatment was initiated intraperitoneally (i.p.), on Day 3 and continued once per day for a total of five (5) days. Treatment groups were injected with one of the following in vivo treatments as indicated in the text:
(§3) On day 8, the mice were weighed, sacrificed by cervical dislocation, and their spleens and thymuses removed and weighed. The organs were minced, the residual erythrocytes were lysed using ammonium chloride (Mishell and Shiigi, "Selected Methods in Cellular Immunology", 1981), and the cells counted.
(§4) Animals, hydrocortisone treatment, and experimental injections were as described in the general methods. The NCM was injected at 50 U of IL-2 per mouse/day. The Thymosin α1 (T alpha-1 or Tα1) was injected at 5 or 20 microgram/mouse/day.

thymocytes = assay: Proliferative response (3H-thymidine) of thymocytes in vitro after in vivo treatment, hydrocortisone induced thymic involution in aged mice
Procedure: (§5) The model of hydrocortisone induced thymic involution in aged mice was used unless otherwise indicated (Hadden et al., 1992b).
as §1, §2, §3
(§6) The proliferative response of the cells to various substances was then determined. A sample of cells was prepared for cell culture at 37° C., 5% CO2 in RPMI 1640 medium with 5% fetal bovine serum, penicillin (100 U/ml), streptomycin (100 μg/ml) and 2-mercaptoethanol (2×10^-5 M). The cells were plated in 0.2 ml microwell plates in quadruplicate at a concentration of 1.5×10^6 /ml and incubated for 72 hours with one of the following as indicated in the text:
(§7) To measure DNA synthesis, the culture was terminated with an 18 hours pulse of tritiated thymidine (^3 H-Thymidine; NEN, Boston, Mass.; specific activity 6.7 Ci/mM), harvested with a multiple automatic sample harvester and processed for liquid scintillation counting. The results were expressed as arithmetic mean of cpm from four samples. In order to simplify the representation of data obtained with different animals, the results were pooled and calculated together and in some cases expressed as a ratio to control±SEM.
(§8) In a series of experiments, mice with involuted thymuses were treated in vivo with NCM, Thymosin α1, Thymosin fraction V, combinations of these factors, and saline or media controls. The spleens and thymuses were removed, the cells were tested for cell proliferation responses to stimulation in vitro with the interleukins (IL1, IL2, NCM) or with mitogens (PHA; ConA).

splenocytes = assay: Proliferative response (3H-thymidine) of splenocytes in vitro after in vivo treatment, hydrocortisone induced thymic involution in aged mice
Procedure: as §5, §1, §2, §3, §6, §7, §8

[2] = Thymus weight in hydrocortisone-treated aged mice; type: in vivo; details: NCM 50 U of IL-2 per mouse/day; Thymosin α1 5 or 20 microgram/mouse/day (pooled); i.p. 5 days, day 8
Procedure: as §1, §2, §3, §4

## Thymosin α1 (SDAAVDTSSEITTKDLKEKKEVVEEAEN; not fully specified; ends and bridges not checked; UniProt P01252 2-29, looked up) [28 amino acid peptide initially extracted from bovine thymus and later synthesized]
[1]
  SPLEEN WEIGHT (mg) Mean ± S.E.M.: 127.66 ± 5.78 mg
thymocytes; FIG. 1, dose response 0.2 to 20 μg/animal/day in vivo
  dose of optimal effects on thymocyte responses to interleukins and mitogen: 5 μg/mouse
thymocytes; FIG. 3, in vivo i.p. once per day for 5 days, Thymosin α1 5 μg/mouse, NCM 50 units IL-2 equivalence
  thymocyte responses in vitro to media, rIL-1, rIL-2 and NCM: increased many of the responses
thymocytes; FIG. 5, in vivo treatments as in FIG. 3
  thymocyte responses to mitogens PHA and ConA: significantly augmented both responses
thymocytes; FIGS. 7 and 9, ratio to saline treated control, Thymosin α1 5 μg/mouse/day, TF5 100 μg/mouse/day, NCM 50 units
  thymocyte responses to rIL-1, IL-2, NCM or ConA: augmented all of the responses
splenocytes; FIG. 2, dose response 0.2 to 20 μg/animal/day in vivo
  dose of optimal effects on splenocyte responses to interleukins and mitogen: 5 μg/mouse
splenocytes; FIG. 4, in vivo i.p. once per day for 5 days, Thymosin α1 5 μg/mouse, NCM 50 units IL-2 equivalence
  splenocyte responses in vitro to media, rIL-1, rIL-2 and NCM: increased many of the responses
splenocytes; FIG. 6, in vivo treatments as in FIG. 3
  splenocyte responses to mitogens PHA and ConA: significantly augmented both responses
splenocytes; FIGS. 8 and 10, ratio to saline treated control, Thymosin α1 5 μg/mouse, TF5 100 μg/mouse, NCM 50 units
  splenocyte responses to rIL-1, IL-2, NCM or ConA: augmented all of the responses
[2]
  THYMUS WEIGHT (mg) Mean ± S.E.M.: 25.75 ± 4.45 mg
